The target in one test is T1, CCR2 (Homo sapiens, UniProt P41597).
T1 construct: expressed in transfected cells; host or cells: HEK293, clone C7, passage P6
T1 sequence (P41597 whole entry, species assumed): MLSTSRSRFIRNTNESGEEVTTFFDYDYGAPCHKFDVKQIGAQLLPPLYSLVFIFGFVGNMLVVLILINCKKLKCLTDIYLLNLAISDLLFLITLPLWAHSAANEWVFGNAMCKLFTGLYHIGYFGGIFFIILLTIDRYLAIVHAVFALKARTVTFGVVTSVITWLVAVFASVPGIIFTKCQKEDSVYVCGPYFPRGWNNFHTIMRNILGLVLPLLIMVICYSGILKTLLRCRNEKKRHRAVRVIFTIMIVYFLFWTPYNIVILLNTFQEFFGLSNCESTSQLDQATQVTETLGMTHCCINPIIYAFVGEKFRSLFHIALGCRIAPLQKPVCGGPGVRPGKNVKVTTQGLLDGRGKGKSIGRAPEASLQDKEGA
The test can be described thus: CCR2 in vitro test: intracellular calcium signal detected by FLIPR. The class given is cell-based. The note with it: HEK293 cells expressing CCR2, agonist MCP-1 at EC80, calcium signal. As for the experimental part:
(§1) Experimental Example 1: CCR2/CCR5 In Vitro Test
(§2) The intracellular calcium signal was detected by FLIPR, and the IC50 value of the compound was used as an index to evaluate the inhibitory effect of the compound on CCR2 and CCR5 receptors.
(§3) 1. Cell line: The cells were inoculated and incubated in a 5% CO2 incubator at 37° C. overnight.
(§4) CCR2/CCR5 density: 1 M (20 k/well)
(§5) 2. Reagents: Fluo-4 Direct, (Invitrogen, Cat #F10471)
(§6) The compound was dissolved in DMSO to prepare a 10 mM solution, and the compound solution was placed in a nitrogen box.
(§7) Agonist reference compounds:
(§8) Preparation of probenecid in FLIPR assay buffer: 1 mL of FLIPR assay buffer was added to […] of probenecid to prepare a 250 mM solution, which is prepared fresh daily.
(§9) 2× (8 μM) Fluo-4 Direct™ Loading Buffer (per 10 mL) • Thaw a bottle of Fluo-4 Direct™ crystal (F10471). • Add 10 mL of FLIPR assay buffer to the vial. • Add 0.2 mL of probenecid to each 10 mL of Fluo-Direct. The final concentration of the assay was 2.5 mM. • Rotate it and place for >5 minutes (in absence of light). • Prepare fresh daily.
(§10) MCP-1 was diluted in FLIPR assay buffer 1:2 into 10 points, starting at 0.5 uM (final 100 nM). RANTES was diluted in FLIPR assay buffer 1:3 into 10 points, starting at 0.5 uM (final 100 nM). 20 uL of serially diluted compound buffer was added to each well of the DRC plate according to the compound plate map.
(§11) Standard compound was diluted in DMSO 1:3 into 11 points, starting at 1 mM. Test compound was diluted in DMSO 1:3 into 11 points, starting at 2 mM. 250 nL of compound solution was transferred into a cell plate using Echo (Greiner #781946).
(§12) (c) Take the cell plate out of the incubator, and gently dispense 20 uL of 2× Fluo-4 Direct wash-free loading buffer into a 384-well cell culture plate using a pipette. The final cell plate is 40 μL in volume.
(§13) (d) Incubate for 50 minutes at 37° C. under 5% CO2, and for 10 minutes at room temperature.
(§14) (e) Take the cell plate out of the incubator, and place it in FLIPR. Place the composite plate and the tip box in FLIPR.
(§15) (f) For DRC plate: • 1) Run the program on FLIPRTETRA. • 2) Read the fluorescent signal. • 3) Transfer 10 μL of compound from the DRC plate to the cell plate. • 4) Read the fluorescent signal. • 5) Calculate the “maximum−minimum” from Read 90 to the maximum allowed. Use FLIPR to calculate the EC80 value of each cell line. • 6) Prepare 5×EC80 concentration of the agonist reference compound.
(§16) (g) For the composite plate (1-add): • 1) Run the program on FLIPRTETRA. • 2) Transfer 10 μl, of 5×EC80 concentration of the agonist reference compound from the composite plate to the cell plate. • 3) Read the fluorescent signal. • 4) Calculate the “maximum−minimum” from Read 90 to the maximum allowed.
(§17) (h) Analyze the data using Prism, and calculate the IC50 value of the compound.
Background: Calcium assays in cells follow changes in intracellular calcium, usually with a dye or a luminescent sensor.
For the molecule `CCCCOCCOc1ccc(-c2ccc(OC(F)(F)F)c(/C=C/C(=O)Nc3ccc([S@@+]([O-])Cc4c(C)ncn4CC)cc3)c2)cc1` [WX054], the IC50 (usually the point on the concentration scale where inhibition reaches its midpoint) turned out to be 43.4 nM.
For `CCCCOCCOc1ccc(-c2ccc(OC(F)F)c(/C=C/C(=O)Nc3ccc([S@@+]([O-])Cc4cncn4CCC)cc3)c2)cc1` [WX051], the IC50 is 5.5 nM.
On the same count and under the same terms, then `CCCCOCCOc1ccc(-c2ccc(SC(C)C)c(/C=C/C(=O)Nc3ccc([S@@+]([O-])Cc4cncn4CCC)cc3)c2)cc1` [WX058], with 28.2 nM; and `CCCCOCCOc1ccc(-c2cc(F)c(OCC)c(/C=C/C(=O)Nc3ccc([S@+]([O-])Cc4c(C)ncn4CC)cc3)c2)cc1` [WX089], with 15 nM.
Same read-out and setting: as for `CCCOc1ccc(-c2ccc(OC(F)F)c(/C=C/C(=O)Nc3ccc([S@+]([O-])Cc4c(C)ncn4CC)cc3)c2)cc1` [WX063], the figure is 9.4 nM; as for `CCCCOCCOc1ccc(-c2ccc(C)c(/C=C/C(=O)Nc3ccc([S@@+]([O-])Cc4cncn4CCC)cc3)c2)cc1` [WX011], 61 nM; as for `CCCCOCCOc1ccc(-c2ccc(C(F)(F)F)c(/C=C/C(=O)Nc3ccc([S@@+]([O-])Cc4c(C)ncn4CC)cc3)c2)cc1` [WX070], 39.2 nM.
The same measure, in the same setting: as for `CCCCOCCOc1ccc(-c2cccc(/C(C)=C/C(=O)Nc3ccc([S@@+]([O-])Cc4cncn4CCC)cc3)c2)cc1` [WX012], the figure is 51 nM.
`CCCCOCCOc1ccc(-c2ccc(OC)c(/C=C/C(=O)Nc3ccc([S+]([O-])Cc4cnccc4CC)cc3)c2)cc1` (stereo not shown) [WX086]: the IC50 was 13 nM.
On to `CCCOCCOc1ccc(-c2ccc(OC)c(/C=C/C(=O)Nc3ccc([S@+]([O-])Cc4c(C)ncn4CC)cc3)c2)cc1` [WX066], for which the half-maximal inhibitory concentration (IC50) was 6.5 nM.
On the same count and under the same terms, as for `CCCCOCCOc1ccc(-c2ccc(OC(F)F)c(/C=C/C(=O)Nc3ccc([S@@+]([O-])Cc4c(C)ncn4CC)cc3)c2)cc1` [WX061], the figure is 8.9 nM.
Still for that read-out and setting: then `CCCCOCCOc1ccc(-c2ccc(OC)c(/C=C/C(=O)Nc3ccc([S@+]([O-])Cc4c(C)ncn4CCC)cc3)c2)cc1` [WX075], with 17.3 nM; and `CCCCOCCOc1ccc(-c2cc(C)c(OC)c(/C=C/C(=O)Nc3ccc([S@+]([O-])Cc4c(C)ncn4CC)cc3)c2)cc1` [WX090], with 5.5 nM.
For the molecule `CCCCOCCOc1ccc(-c2ccc(C(F)(F)F)c(/C=C/C(=O)Nc3ccc([S@@+]([O-])Cc4cncn4CCC)cc3)c2)cc1` [WX060], the half-inhibitory concentration (IC50) is 18.5 nM.
With `CCCCOCCOc1ccc(-c2ccc(OC)c(/C=C/C(=O)Nc3ccc([S@+]([O-])Cc4cncn4CC)cc3)c2)cc1` [WX039], the IC50 worked out at 70.1 nM.
In the case of `CCCCOCCOc1ccc(-c2cccc(/C=C/C(=O)Nc3ccc([S+]([O-])Cc4cncn4CC)cc3)c2)cc1` (stereo not shown) [WX019], the half-inhibitory concentration (IC50) worked out at 9.3 nM.
In the case of `CCCCOCCOc1ccc(-c2cc(/C=C/C(=O)Nc3ccc([S@@+]([O-])Cc4cncn4CCC)cc3)c(OC)cc2Cl)cc1` [WX043], the IC50 is 250 nM.
On to `CCCCOCCOc1ccc(-c2ccc(OC)c(/C=C/C(=O)Nc3ccc([S+]([O-])Cc4c(C)ncn4CC)cc3)c2)cc1` (stereo not shown) [WX045], for which the IC50 was determined as 77.6 nM.
With `CCCCOCCOc1ccc(-c2ccc(F)c(/C=C/C(=O)Nc3ccc([S@+]([O-])Cc4c(C)ncn4CC)cc3)c2)cc1` [WX091], the half-inhibitory concentration (IC50) worked out at 4.7 nM.

For another test, the target named is T2, CCR5 (Homo sapiens, UniProt P51681).
T2 construct: expressed in transfected cells; host or cells: HEK293, clone C13, passage P4
T2 sequence (P51681 whole entry, species assumed): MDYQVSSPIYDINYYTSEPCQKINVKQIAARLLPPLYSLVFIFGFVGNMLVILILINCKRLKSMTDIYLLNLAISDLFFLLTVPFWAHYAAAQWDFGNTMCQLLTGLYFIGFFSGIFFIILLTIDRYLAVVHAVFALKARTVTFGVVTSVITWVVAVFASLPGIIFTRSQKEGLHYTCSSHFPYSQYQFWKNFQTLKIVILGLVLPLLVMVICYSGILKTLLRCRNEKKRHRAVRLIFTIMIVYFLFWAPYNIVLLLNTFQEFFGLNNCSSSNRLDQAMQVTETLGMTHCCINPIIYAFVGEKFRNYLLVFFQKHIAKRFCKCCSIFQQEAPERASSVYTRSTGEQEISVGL
In words: CCR5 in vitro test: intracellular calcium signal detected by FLIPR. It counts as cell-based. The note with it: HEK293 cells expressing CCR5, agonist RANTES at EC80, calcium signal. As for the experimental part: as §1, §2, §3, §4, §5, §6, §7, §8, §9, §10, §11, §12, §13, §14, §15, §16, §17
Turning to `CCCCOCCOc1ccc(-c2ccc(OC(F)(F)F)c(/C=C/C(=O)Nc3ccc([S@@+]([O-])Cc4c(C)ncn4CC)cc3)c2)cc1` [WX054], the 50% inhibitory concentration (IC50) came out at 9.2 nM.
As to `CCCCOCCOc1ccc(-c2ccc(OC(F)F)c(/C=C/C(=O)Nc3ccc([S@@+]([O-])Cc4cncn4CCC)cc3)c2)cc1` [WX051], the IC50 was 1.4 nM.
Take `CCCCOCCOc1ccc(-c2ccc(SC(C)C)c(/C=C/C(=O)Nc3ccc([S@@+]([O-])Cc4cncn4CCC)cc3)c2)cc1` [WX058]: the IC50 was 5.7 nM.
As for `CCCOc1ccc(-c2ccc(OC(F)F)c(/C=C/C(=O)Nc3ccc([S@+]([O-])Cc4c(C)ncn4CC)cc3)c2)cc1` [WX063], the IC50 was determined as 1.4 nM.
The same measure, in the same setting: as for `CCCCOCCOc1ccc(-c2ccc(C)c(/C=C/C(=O)Nc3ccc([S@@+]([O-])Cc4cncn4CCC)cc3)c2)cc1` [WX011], the figure is 2.6 nM.
Consider `CCCCOCCOc1ccc(-c2ccc(C(F)(F)F)c(/C=C/C(=O)Nc3ccc([S@@+]([O-])Cc4c(C)ncn4CC)cc3)c2)cc1` [WX070], for which the concentration for half-maximal inhibition (IC50) is 8.4 nM.
The same measure, in the same setting: then `CCCCOCCOc1ccc(-c2cccc(/C(C)=C/C(=O)Nc3ccc([S@@+]([O-])Cc4cncn4CCC)cc3)c2)cc1` [WX012], with 5.4 nM.
Same read-out and setting: then `CCCCOCCOc1ccc(-c2ccc(OC)c(/C=C/C(=O)Nc3ccc([S+]([O-])Cc4cnccc4CC)cc3)c2)cc1` (stereo not shown) [WX086], with 1.8 nM; and `CCCOCCOc1ccc(-c2ccc(OC)c(/C=C/C(=O)Nc3ccc([S@+]([O-])Cc4c(C)ncn4CC)cc3)c2)cc1` [WX066], with 10.1 nM; and `CCCCOCCOc1ccc(-c2ccc(OC(F)F)c(/C=C/C(=O)Nc3ccc([S@@+]([O-])Cc4c(C)ncn4CC)cc3)c2)cc1` [WX061], with 15.2 nM.
On to `CCCCOCCOc1ccc(-c2ccc(OC)c(/C=C/C(=O)Nc3ccc([S@+]([O-])Cc4c(C)ncn4CCC)cc3)c2)cc1` [WX075], for which the IC50 turned out to be 2.4 nM.
Still for that read-out and setting: then `CCCCOCCOc1ccc(-c2cc(C)c(OC)c(/C=C/C(=O)Nc3ccc([S@+]([O-])Cc4c(C)ncn4CC)cc3)c2)cc1` [WX090], with 6.9 nM; and `CCCCOCCOc1ccc(-c2ccc(C(F)(F)F)c(/C=C/C(=O)Nc3ccc([S@@+]([O-])Cc4cncn4CCC)cc3)c2)cc1` [WX060], with 4.1 nM; and `CCCCOCCOc1ccc(-c2ccc(OC)c(/C=C/C(=O)Nc3ccc([S@+]([O-])Cc4cncn4CC)cc3)c2)cc1` [WX039], with 760 nM.
For `CCCCOCCOc1ccc(-c2cccc(/C=C/C(=O)Nc3ccc([S+]([O-])Cc4cncn4CC)cc3)c2)cc1` (stereo not shown) [WX019], the concentration for half-maximal inhibition (IC50) was determined as 50.9 nM.
Consider `CCCCOCCOc1ccc(-c2cc(/C=C/C(=O)Nc3ccc([S@@+]([O-])Cc4cncn4CCC)cc3)c(OC)cc2Cl)cc1` [WX043], for which the IC50 was 9.1 nM.
The same measure, in the same setting: as for `CCCCOCCOc1ccc(-c2ccc(OC)c(/C=C/C(=O)Nc3ccc([S+]([O-])Cc4c(C)ncn4CC)cc3)c2)cc1` (stereo not shown) [WX045], the figure is 14.8 nM; as for `CCCCOCCOc1ccc(-c2ccc(F)c(/C=C/C(=O)Nc3ccc([S@+]([O-])Cc4c(C)ncn4CC)cc3)c2)cc1` [WX091], 4.4 nM.

Values taken from US11155523B2, “Biphenyl compound as CCR2/CCR5 receptor antagonist” (Medshine Discovery Inc., priority 2016, dated 2021).
